The results in this text go back to PMC12121777 (PLOS One, 2025).

pIC50: −log10 of the molar value. ≈ marks a conversion by molar mass, not a printed value. Where two headings read alike, the source gives them in different places.

The subject of assay [1] is Mycobacterium kansasii 6509/96. In words: MIC, micro method in Šula's semisynthetic medium, M. kansasii clinical isolate. The conditions noted are these: read-out: MIC M. kansasii 6509/96. In kind it is cell-based.
A further assay relates to Mtb H37Ra pVV2. As to the kind of experiment: microbe, parasite or virus in culture. The conditions noted are these: Mycobacterium tuberculosis, 672 h, 28 days. In kind it is cell-based.
Assay [2] deals with Mycobacterium avium 330/88. In words: MIC, micro method in Šula's semisynthetic medium, M. avium. It counts as cell-based. The conditions noted are these: read-out: MIC M. avium 330/88.
In assay [3] the test system is Mtb H37Ra pVV2-dprE1/dprE2. In words: microbe, parasite or virus in culture. In kind it is cell-based. The note with it: Mycobacterium tuberculosis, 672 h, 28 days.
Another assay relates to Mtb 331/88 (i.e., H37Rv). In words: MIC, micro method in Šula's semisynthetic medium, drug-susceptible Mtb. In kind it is cell-based, Mycobacterium tuberculosis. The conditions noted are these: Mycobacterium tuberculosis, H37RV.
The next assay concerns Mtb H37Ra pVV2-dprE2. As to the kind of experiment: microbe, parasite or virus in culture. In kind it is cell-based. The conditions noted are these: Mycobacterium tuberculosis, 672 h, 28 days.
A further assay relates to Mtb H37Rv. In words: Metabolic labeling with 14C acetate and TLC lipid analysis. The note with it: 10× and 100× MIC, 14C acetate, 24 h.
The next assay relates to HepG2 cells. In words: Cytotoxicity on HepG2 cell line (CellTiter 96). It counts as cell-based, human. The note with it: Homo sapiens, read-out: IC50 HepG2.

As to `CCCCCCCCCCCCNC(=S)NNC(=O)c1cc([N+](=O)[O-])cc([N+](=O)[O-])c1` [Compound 4s, 2-(3,5-Dinitrobenzoyl)-N-dodecylhydrazine-1-carbothioamide], the MIC worked out at 1 µM (≈ 0.454 µg/mL) in assay [1] (6509/96, 168 h); 1 µM (≈ 0.454 µg/mL) in assay [1] (6509/96, 336 h); 2 µM (≈ 0.907 µg/mL) in assay [1] (6509/96, 504 h); 2 µM (≈ 0.907 µg/mL) with Mtb H37Ra pVV2; 16 µM (≈ 7.26 µg/mL) in assay [2] (330/88, 336 h); 16 µM (≈ 7.26 µg/mL) in assay [2] (330/88, 504 h). Further, the MIC was over 4 µM in assay [3]; 2 µM (≈ 0.907 µg/mL) against Mtb 331/88 (i.e., H37Rv) (336 h, 14 days); 2 µM (≈ 0.907 µg/mL) in the assay on Mtb 331/88 (i.e., H37Rv) (504 h, 21 days); 2 µM (≈ 0.907 µg/mL) in the assay on Mtb H37Ra pVV2-dprE2. In addition, the “lipid profile of treated cells vs untreated cells” value in the assay with Mtb H37Rv was “accumulation of TMM and TDM”.
With `CCCCCCCCNc1nnc(-c2cc([N+](=O)[O-])cc([N+](=O)[O-])c2)o1` [Compound 5h, 5-(3,5-Dinitrophenyl)-N-octyl-1,3,4-oxadiazol-2-amine], the MIC was at most 0.03 µM in assay [1] (6509/96, 168 h); 0.06 µM (≈ 0.0218 µg/mL) in assay [1] (6509/96, 336 h); 0.06 µM (≈ 0.0218 µg/mL) in assay [1] (6509/96, 504 h); 8 µM (≈ 2.91 µg/mL) in assay [2] (330/88, 336 h); 16 µM (≈ 5.81 µg/mL) in assay [2] (330/88, 504 h); 0.06 µM (≈ 0.0218 µg/mL) against Mtb 331/88 (i.e., H37Rv) (336 h, 14 days). The same compound had an MIC against Mtb 331/88 (i.e., H37Rv) (504 h, 21 days) of 0.06 µM (≈ 0.0218 µg/mL). Besides, the negative logarithm of the IC50 (pIC50) – broadly, the IC50 on a negative log10 scale, so that one unit is a factor of ten – in the assay with HepG2 cells (HepG2, 24 h) was under 4.00.
For `CCCCCCCCCNc1nnc(-c2cc([N+](=O)[O-])cc([N+](=O)[O-])c2)o1` [Compound 5i, 5-(3,5-Dinitrophenyl)-N-nonyl-1,3,4-oxadiazol-2-amine], the MIC is at most 0.03 µM in assay [1] (6509/96, 168 h); 0.06 µM (≈ 0.0226 µg/mL) in assay [1] (6509/96, 336 h); 0.06 µM (≈ 0.0226 µg/mL) in assay [1] (6509/96, 504 h); 8 µM (≈ 3.02 µg/mL) in assay [2] (330/88, 336 h); 16 µM (≈ 6.04 µg/mL) in assay [2] (330/88, 504 h); 0.06 µM (≈ 0.0226 µg/mL) with Mtb 331/88 (i.e., H37Rv) (336 h, 14 days). The compound further registered an MIC in the assay with Mtb 331/88 (i.e., H37Rv) (504 h, 21 days) of 0.06 µM (≈ 0.0226 µg/mL). Moreover, in the assay with HepG2 cells (HepG2, 24 h), the pIC50 was under 4.00.
As for `CCCCCCCCCCNc1nnc(-c2cc([N+](=O)[O-])cc([N+](=O)[O-])c2)o1` [Compound 5j, N-Decyl-5-(3,5-dinitrophenyl)-1,3,4-oxadiazol-2-amine], the MIC in assay [1] (6509/96, 168 h) turned out to be 1 µM (≈ 0.391 µg/mL); in assay [1] (6509/96, 336 h), 1 µM (≈ 0.391 µg/mL); in assay [1] (6509/96, 504 h), 1 µM (≈ 0.391 µg/mL); in assay [2] (330/88, 336 h), 4 µM (≈ 1.57 µg/mL); in assay [2] (330/88, 504 h), 8 µM (≈ 3.13 µg/mL); against Mtb 331/88 (i.e., H37Rv) (336 h, 14 days), 0.5 µM (≈ 0.196 µg/mL). The MIC in the assay on Mtb 331/88 (i.e., H37Rv) (504 h, 21 days) was 1 µM (≈ 0.391 µg/mL). In the assay with HepG2 cells (HepG2, 24 h), the negative-log IC50 (pIC50) is under 4.00.
With `CCCCCCCCCCCNc1nnc(-c2cc([N+](=O)[O-])cc([N+](=O)[O-])c2)o1` [Compound 5k, 5-(3,5-Dinitrophenyl)-N-undecyl-1,3,4-oxadiazol-2-amine], the MIC in assay [1] (6509/96, 168 h) was determined as 1 µM (≈ 0.405 µg/mL); in assay [1] (6509/96, 336 h) it was 1 µM (≈ 0.405 µg/mL); in assay [1] (6509/96, 504 h), 1 µM (≈ 0.405 µg/mL); in assay [2] (330/88, 336 h), 4 µM (≈ 1.62 µg/mL); in assay [2] (330/88, 504 h), 4 µM (≈ 1.62 µg/mL); in the assay on Mtb 331/88 (i.e., H37Rv) (336 h, 14 days), 0.5 µM (≈ 0.203 µg/mL). Moreover, the MIC with Mtb 331/88 (i.e., H37Rv) (504 h, 21 days) amounted to 1 µM (≈ 0.405 µg/mL). Moreover, the negative logarithm of the IC50 (pIC50) with HepG2 cells (HepG2, 24 h) was under 4.30.
For `CCCCCCCCCCCCNc1nnc(-c2cc([N+](=O)[O-])cc([N+](=O)[O-])c2)o1` [Compound 5l, 5-(3,5-Dinitrophenyl)-N-dodecyl-1,3,4-oxadiazol-2-amine], the MIC in assay [1] (6509/96, 168 h) was determined as 1 µM (≈ 0.419 µg/mL); in assay [1] (6509/96, 336 h), 1 µM (≈ 0.419 µg/mL); in assay [1] (6509/96, 504 h) it was 1 µM (≈ 0.419 µg/mL); in assay [2] (330/88, 336 h), 4 µM (≈ 1.68 µg/mL); in assay [2] (330/88, 504 h), 8 µM (≈ 3.36 µg/mL); in the assay on Mtb 331/88 (i.e., H37Rv) (336 h, 14 days), 1 µM (≈ 0.419 µg/mL). Also, the MIC with Mtb 331/88 (i.e., H37Rv) (504 h, 21 days) was determined as 1 µM (≈ 0.419 µg/mL). For the same compound, the negative logarithm of the IC50 (pIC50) with HepG2 cells (HepG2, 24 h) was under 4.30.
For `CCCCCCCCCCCCCNc1nnc(-c2cc([N+](=O)[O-])cc([N+](=O)[O-])c2)o1` [Compound 5m, 5-(3,5-Dinitrophenyl)-N-tridecyl-1,3,4-oxadiazol-2-amine], the MIC in assay [1] (6509/96, 168 h) is at most 0.03 µM; in assay [1] (6509/96, 336 h), 0.06 µM (≈ 0.026 µg/mL); in assay [1] (6509/96, 504 h) it was 0.125 µM (≈ 0.0542 µg/mL); in assay [2] (330/88, 336 h), 8 µM (≈ 3.47 µg/mL); in assay [2] (330/88, 504 h) it was 16 µM (≈ 6.94 µg/mL); in the assay with Mtb 331/88 (i.e., H37Rv) (336 h, 14 days) it was 0.125 µM (≈ 0.0542 µg/mL). This compound also gave an MIC with Mtb 331/88 (i.e., H37Rv) (504 h, 21 days) of 0.5 µM (≈ 0.217 µg/mL). Moreover, the pIC50 in the assay with HepG2 cells (HepG2, 24 h) is under 4.30.
In the case of `CCCCCCCCCCCCCCNc1nnc(-c2cc([N+](=O)[O-])cc([N+](=O)[O-])c2)o1` [Compound 5n, 5-(3,5-Dinitrophenyl)-N-tetradecyl-1,3,4-oxadiazol-2-amine], the MIC was determined as 0.25 µM (≈ 0.112 µg/mL) in assay [1] (6509/96, 168 h); 0.5 µM (≈ 0.224 µg/mL) in assay [1] (6509/96, 336 h); 1 µM (≈ 0.448 µg/mL) in assay [1] (6509/96, 504 h); 8 µM (≈ 3.58 µg/mL) in assay [2] (330/88, 336 h); 16 µM (≈ 7.16 µg/mL) in assay [2] (330/88, 504 h); 1 µM (≈ 0.448 µg/mL) in the assay on Mtb 331/88 (i.e., H37Rv) (336 h, 14 days). For the same compound, in the assay with Mtb 331/88 (i.e., H37Rv) (504 h, 21 days), the MIC was found to be 1 µM (≈ 0.448 µg/mL). Besides, the negative logarithm of the IC50 (pIC50) in the assay on HepG2 cells (HepG2, 24 h) was under 4.30.
On to `CCCCCCCCCCCCCCCNc1nnc(-c2cc([N+](=O)[O-])cc([N+](=O)[O-])c2)o1` [Compound 5o, 5-(3,5-Dinitrophenyl)-N-pentadecyl-1,3,4-oxadiazol-2-amine], for which the MIC amounted to 0.5 µM (≈ 0.231 µg/mL) in assay [1] (6509/96, 168 h); 1 µM (≈ 0.462 µg/mL) in assay [1] (6509/96, 336 h); 2 µM (≈ 0.923 µg/mL) in assay [1] (6509/96, 504 h); 8 µM (≈ 3.69 µg/mL) in assay [2] (330/88, 336 h); 16 µM (≈ 7.39 µg/mL) in assay [2] (330/88, 504 h); 2 µM (≈ 0.923 µg/mL) against Mtb 331/88 (i.e., H37Rv) (336 h, 14 days). The MIC against Mtb 331/88 (i.e., H37Rv) (504 h, 21 days) came to 2 µM (≈ 0.923 µg/mL). The negative logarithm of the IC50 (pIC50) in the assay on HepG2 cells (HepG2, 24 h) was under 4.30.
`CCCCCCCCCCCCNc1nnc(-c2cc([N+](=O)[O-])cc([N+](=O)[O-])c2)s1` [Compound 5s, 5-(3,5-Dinitrophenyl)-N-dodecyl-1,3,4-thiadiazol-2-amine]: the MIC was 1 µM (≈ 0.436 µg/mL) in assay [1] (6509/96, 168 h); 1 µM (≈ 0.436 µg/mL) in assay [1] (6509/96, 336 h); 1 µM (≈ 0.436 µg/mL) in assay [1] (6509/96, 504 h); under 0.1 µM with Mtb H37Ra pVV2; 64 µM (≈ 27.9 µg/mL) in assay [2] (330/88, 336 h); 125 µM (≈ 54.4 µg/mL) in assay [2] (330/88, 504 h). Moreover, the MIC was 0.5 µM (≈ 0.218 µg/mL) in assay [3]; 1 µM (≈ 0.436 µg/mL) in the assay with Mtb 331/88 (i.e., H37Rv) (336 h, 14 days); 1 µM (≈ 0.436 µg/mL) in the assay on Mtb 331/88 (i.e., H37Rv) (504 h, 21 days); under 0.1 µM with Mtb H37Ra pVV2-dprE2. Also, the “lipid profile of treated cells vs untreated cells” value with Mtb H37Rv is “accumulation of TMM and TDM”.
As to `NNC(=O)c1ccncc1` [INH, isoniazid, reference compound], the MIC was 4 µM (≈ 0.549 µg/mL) in assay [1] (6509/96, 168 h, 7 days); 8 µM (≈ 1.1 µg/mL) in assay [1] (6509/96, 336 h, 14 days); 8 µM (≈ 1.1 µg/mL) in assay [1] (6509/96, 504 h, 21 days); over 250 µM in assay [2] (330/88, 336 h, 14 days, * = growth still observed at this concentration, turbidity or precipitate above); over 250 µM in assay [2] (330/88, 504 h, 21 days, * = growth still observed at this concentration, turbidity or precipitate above); 0.5 µM (≈ 0.0686 µg/mL) with Mtb 331/88 (i.e., H37Rv) (336 h, 14 days). In addition, the MIC against Mtb 331/88 (i.e., H37Rv) (504 h, 21 days) stood at 0.5 µM (≈ 0.0686 µg/mL). The pIC50 with HepG2 cells (HepG2, 24 h incubation) is under 3.00.
